# Literature values, collected in patent US20130331260A1, “Odour-Control Superabsorbent” (BASF SE, priority 2012, published 2013).
# Tests used:
# [1] = tested on: Helicobacter sp.
# [2] = tested on: seed germination in urea-based fertiliser
compound,measurement,setting,value
"NP(N)(=O)NC(=O)c1ccc(F)cc1 [fluorofamide, N-[Diaminophosphinyl]-4-fluorobenzamide]",antibacterial properties,[1],no measurable antibacterial properties
same,effect on seed germination compared with non-fluorinated analogue,[2],worked better than its non-fluorinated analogue in most cases
